Measurements published in ChEMBL document CHEMBL5528066, “Discovery of Novel N-(Anthracen-9-ylmethyl) Benzamide Derivatives as ZNF207 Inhibitors Promising in Treating Glioma” (J Med Chem, 2024).
pIC50: −log10 of the molar value. The source made the active and inactive calls. The rule behind the calls is not given here.

How the values were obtained:
[1] = Drug concentration in female Sprague-Dawley rat spleen at 45 mg/kg, po measured after 8 hrs by LC-MS/MS analysis; assay type: ADME, organism-based; conditions: read-out: Ct
[2] = test system: H4; assay: Inhibition of colony formation in human H4 cells assessed as reduction in colony area at 5 uM treated on day 1 and measured after 14 days by crystal violet staining based microscopic analysis relative to control; assay type: functional; conditions: H4, 336 h, time 14 day
[3] = Toxicity in male C57BL/6 mouse assessed as change in cellular structure of lung at 45 mg/kg, po administered once a day for 2 weeks by H and E staining based analysis; assay type: organism-based; conditions: in vivo, 336 h
[4] = test system: LN-229; assay: Inhibition of sphere formation in human LN-229 cells at 4 uM measured after 10 days in well containing 1 cells by microscopic analysis; assay type: functional, cell-based; conditions: time 10.0 day
[5] = test system: MDR1; assay: Apparent permeability across apical to basolateral side in MDCKII-MDR1 cells assessed as drug recovery at 1 uM incubated for 2 hrs by LC-MS/MS analysis; assay type: ADME, cell-based, Canis lupus familiaris; conditions: dog, MDCK-MDR1, read-out: Drug recovery
[6] = test system: Hs 683; assay: Inhibition of sphere formation in human Hs 683 cells at 1 uM measured after 10 days in well containing 1 cells by microscopic analysis; assay type: functional, cell-based; conditions: time 10.0 day
[7] = test system: LN-229; assay: Inhibition of cell migration in human LN-229 cells assessed as reduction in wound closure ability measured after 24 to 48 hrs by wound healing assay; assay type: functional, cell-based; conditions: dose 2.5-10 µM, time 24-48 hrs
[8] = test system: MDR1; assay: Apparent permeability across basolateral to apical side in MDCKII-MDR1 cells at 1 uM incubated for 2 hrs by LC-MS/MS analysis; assay type: ADME, cell-based, Canis lupus familiaris; conditions: dog, MDCK-MDR1
[9] = Toxicity in male C57BL/6 mouse assessed as change in cellular structure of heart at 45 mg/kg, po administered once a day for 2 weeks by H and E staining based analysis; assay type: organism-based; conditions: in vivo, 336 h
[10] = test system: Hs 683; assay: Induction of apoptosis in human Hs 683 cells at 1.25 uM incubated for 24 hrs by Annexin V-FITC/PI staining based flow cytometry analysis; assay type: functional, cell-based
[11] = test system: Hs 683; assay: Inhibition of sphere formation in human Hs 683 cells assessed as fold reduction in sphere initiating frequency at 2 uM incubated for 10 days by microscopic analysis relative to control; assay type: functional; conditions: time 10 day
[12] = test system: LN-229; assay: Antiproliferative activity against human LN-229 cells assessed as inhibition of cell growth measured after 72 hrs by CCK-8 assay; assay type: functional, cell-based; conditions: LN-229, 72 h
[13] = test system: Hs 683; assay: Inhibition of sphere formation in human Hs 683 cells at 4 uM measured after 10 days in well containing 100 cells by microscopic analysis; assay type: functional, cell-based; conditions: time 10.0 day
[14] = test system: LN-229; assay: Inhibition of sphere formation in human LN-229 cells at 4 uM measured after 10 days in well containing 10000 cells by microscopic analysis; assay type: functional, cell-based; conditions: time 10.0 day
[15] = test system: U-251; assay: Inhibition of colony formation in human U-251MG cells assessed as reduction in colony area at 2.5 uM treated on day 1 and measured after 14 days by crystal violet staining based microscopic analysis relative to control; assay type: functional; conditions: U-251, 336 h, time 14 day
[16] = Toxicity in male C57BL/6 mouse assessed as change in cellular structure of stomach at 45 mg/kg, po administered once a day for 2 weeks by H and E staining based analysis; assay type: organism-based; conditions: in vivo, 336 h
[17] = target: BUB3-interacting and GLEBS motif-containing protein ZNF207 (Homo sapiens, UniProt O43670); assay: Binding affinity to ZNF207 in human H4 cells assessed as thermal stabilization by measuring melting temperature at 30 uM incubated for 3 hrs by CETSA (reference value: 48.9 degreeC); assay type: cell-based
[18] = test system: U-251; assay: Induction of apoptosis in human U-251MG cells at 1.25 uM incubated for 24 hrs by Annexin V-FITC/PI staining based flow cytometry analysis; assay type: functional, cell-based
[19] = test system: U-251; assay: Inhibition of sphere formation in human U-251MG cells at 4 uM measured after 10 days in well containing 10 cells by microscopic analysis; assay type: functional, cell-based; conditions: time 10.0 day
[20] = Drug concentration in female Sprague-Dawley rat brain at 45 mg/kg, po measured after 8 hrs by LC-MS/MS analysis; assay type: ADME, organism-based; conditions: read-out: Ct
[21] = Toxicity in female C57BL/6 mouse assessed as change in cellular structure of lung at 45 mg/kg, po administered once a day for 2 weeks by H and E staining based analysis; assay type: organism-based; conditions: in vivo, 336 h
[22] = test system: AGS; assay: Antiproliferative activity against human AGS cells assessed as inhibition of cell growth incubated for 72 hrs by CCK-8 assay; assay type: functional, cell-based
[23] = test system: LN-229; assay: Inhibition of colony formation in human LN-229 cells assessed as reduction in number of cell clones treated on day 1 and measured after 14 days by crystal violet staining based microscopic analysis; assay type: functional; conditions: dose 0.625-5 µM, time 14.0 day
[24] = test system: U-251; assay: Inhibition of sphere formation in human U-251MG cells at 8 uM measured after 10 days in well containing 10000 cells by microscopic analysis; assay type: functional, cell-based; conditions: time 10.0 day
[25] = test system: LN-229; assay: Antitumor activity against human LN-229 cells xenografted in BALB/c nude mouse assessed as reduction in proportion of p-H3 positive cells at 150 mg/kg, ip administered twice a week and measured after 49 days by immunohistochemistry analysis; assay type: functional, organism-based; conditions: time 49.0 day
[26] = test system: LN-229; assay: Inhibition of sphere formation in human LN-229 cells assessed as fold reduction in sphere initiating frequency at 1 uM incubated for 10 days by microscopic analysis relative to control; assay type: functional; conditions: time 10 day
[27] = test system: LN-229; assay: Downregulation of SOX2 protein expression in human LN-229 cells at 2 to 4 uM incubated for 48 hrs by Western blot analysis; assay type: functional, cell-based; conditions: dose 2-4 µM
[28] = test system: LN-229; assay: Inhibition of cell migration in human LN-229 cells assessed as reduction in wound closure ability at 5 uM measured after 48 hrs by wound healing assay relative to control; assay type: functional
[29] = test system: H4; assay: Downregulation of SOX2 protein expression in human H4 cells at 2 to 4 uM incubated for 48 hrs by Western blot analysis; assay type: functional, cell-based; conditions: dose 2-4 µM
[30] = test system: Hs 683; assay: Inhibition of sphere formation in human Hs 683 cells at 4 uM measured after 10 days in well containing 10 cells by microscopic analysis; assay type: functional, cell-based; conditions: time 10.0 day
[31] = test system: H4; assay: Inhibition of sphere formation in human H4 cells at 4 uM measured after 10 days in well containing 10 cells by microscopic analysis; assay type: functional, cell-based; conditions: time 10.0 day
[32] = test system: Hs 683; assay: Inhibition of sphere formation in human Hs 683 cells at 8 uM measured after 10 days in well containing 10 cells by microscopic analysis; assay type: functional, cell-based; conditions: time 10.0 day
[33] = test system: Hs 683; assay: Inhibition of sphere formation in human Hs 683 cells at 1 uM measured after 10 days in well containing 1000 cells by microscopic analysis; assay type: functional, cell-based; conditions: time 10.0 day
[34] = test system: Hs 683; assay: Inhibition of sphere formation in human Hs 683 cells at 2 uM measured after 10 days in well containing 1 cells by microscopic analysis; assay type: functional, cell-based; conditions: time 10.0 day
[35] = test system: LN-229; assay: Inhibition of sphere formation in human LN-229 cells at 1 uM measured after 10 days in well containing 1 cells by microscopic analysis; assay type: functional, cell-based; conditions: time 10.0 day
[36] = Toxicity in female C57BL/6 mouse assessed as change in cellular structure of liver at 45 mg/kg, po administered once a day for 2 weeks by H and E staining based analysis; assay type: organism-based; conditions: in vivo, 336 h
[37] = test system: Hs 683; assay: Inhibition of sphere formation in human Hs 683 cells at 2 uM measured after 10 days in well containing 10 cells by microscopic analysis; assay type: functional, cell-based; conditions: time 10.0 day

Sequence of BUB3-interacting and GLEBS motif-containing protein ZNF207 (O43670 whole entry): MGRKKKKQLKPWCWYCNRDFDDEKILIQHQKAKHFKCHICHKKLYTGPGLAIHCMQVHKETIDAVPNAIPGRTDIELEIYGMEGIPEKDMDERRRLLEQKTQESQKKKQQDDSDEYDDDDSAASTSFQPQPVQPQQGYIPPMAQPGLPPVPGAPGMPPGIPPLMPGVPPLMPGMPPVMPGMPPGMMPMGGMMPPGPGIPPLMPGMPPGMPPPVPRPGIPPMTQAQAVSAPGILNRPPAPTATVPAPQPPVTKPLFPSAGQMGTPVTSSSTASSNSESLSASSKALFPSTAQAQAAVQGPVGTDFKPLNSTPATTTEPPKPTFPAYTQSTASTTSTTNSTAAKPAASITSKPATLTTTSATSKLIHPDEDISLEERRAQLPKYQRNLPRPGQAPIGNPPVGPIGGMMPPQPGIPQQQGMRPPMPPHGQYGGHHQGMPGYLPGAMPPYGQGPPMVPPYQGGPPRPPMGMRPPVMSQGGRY

For `N#CC1(C(=O)NCCC2CCN(Cc3ccccc3)CC2)CC2(Br)c3ccccc3C1c1ccccc12` (racemic), the concentration at 8 h [1] was 2330 ng/g, the inhibition at 5 µM [2] was 100% and the Activity [3] was “Non-Toxic”. For the same molecule, the inhibition [4] was “Active”, the recovery at 2 h, 1 µM [5] was 96% and the inhibition [6] was “Active”. For the same molecule, the inhibition [7] was “Dose-Dependent Effect”, the Papp B→A at 2 h, 1 µM [8] was 4.09 ×10⁻⁶ cm/s and the Activity [9] was “Non-Toxic”. For the same molecule, the Activity [10] was “Active”, the “fold change (FC)” value [11] was 15.75 and the pIC50 [12] was 5.30. For the same molecule, the inhibition [13] was “Active”, the inhibition [14] was “inactive” and the inhibition at 2.5 µM [15] was 100%. For the same molecule, the Activity [16] was “Non-Toxic”, the Tm [17] was 50.8 °C and the Activity [18] was “Active”. For the same molecule, the inhibition [19] was “Active”, the concentration at 8 h [20] was 56.1 ng/g and the Activity [21] was “Non-Toxic”. The pIC50 [22] was 5.03, the inhibition [23] was “Dose-Dependent Effect” and the inhibition [24] was “inactive”. For the same molecule, the Activity [25] was “Active”, the “fold change (FC)” value [26] was 4.37 and the Activity [27] was “Active”. For the same molecule, the inhibition at 5 µM [28] was 28.4%, the Activity [29] was “Active” and the inhibition [30] was “Active”. For the same molecule, the inhibition [31] was “Active”, the inhibition [32] was “Active” and the inhibition [33] was “inactive”. For the same molecule, the inhibition [34] was “Active”, the inhibition [35] was “Active” and the Activity [36] was “Non-Toxic”. For the same molecule, the inhibition [37] was “Active”.
